Source: article PMC4852132 (Biochemistry, 2016)
Where “and” joins values, the source holds several entries; their conditions need not be identical. Identical values can stand only once. Like-named read-outs stand apart in the source and are kept apart here.

Key:
E1p-h [1] = target: T1, E1p-h (Homo sapiens, UniProt P08559+P11177); assay: MS reductive acetylation of the E2p-h lipoyl domain; format: biochemical; conditions: E1p-h with cofactor and pyruvate
T1 sequence (P08559 30-390): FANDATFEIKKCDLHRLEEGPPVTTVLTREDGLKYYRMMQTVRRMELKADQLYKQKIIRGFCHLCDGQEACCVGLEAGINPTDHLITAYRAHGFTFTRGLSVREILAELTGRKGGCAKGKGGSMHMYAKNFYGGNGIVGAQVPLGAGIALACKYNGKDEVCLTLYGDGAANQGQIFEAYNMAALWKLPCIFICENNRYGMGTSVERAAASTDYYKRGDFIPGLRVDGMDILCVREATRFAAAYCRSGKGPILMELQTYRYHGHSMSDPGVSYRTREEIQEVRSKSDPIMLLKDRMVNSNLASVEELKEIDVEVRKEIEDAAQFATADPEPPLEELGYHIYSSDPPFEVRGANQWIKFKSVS
T1 sequence (P11177 31-359): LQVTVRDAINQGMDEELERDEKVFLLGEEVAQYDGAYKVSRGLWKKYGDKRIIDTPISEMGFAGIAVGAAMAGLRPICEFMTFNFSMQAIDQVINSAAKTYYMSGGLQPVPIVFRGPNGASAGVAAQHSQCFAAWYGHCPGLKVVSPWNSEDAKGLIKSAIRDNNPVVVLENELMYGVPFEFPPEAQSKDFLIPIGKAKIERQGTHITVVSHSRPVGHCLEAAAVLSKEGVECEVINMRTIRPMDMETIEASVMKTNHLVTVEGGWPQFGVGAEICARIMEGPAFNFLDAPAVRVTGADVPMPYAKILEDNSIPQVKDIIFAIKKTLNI

OGDHc-ec = OGDHc-ec (Escherichia coli, UniProt P0AFG3); assay: Overall OGDHc-ec activity by formation of NADH; format: biochemical
E1p-h [2] = target: T1, E1p-h; assay: E1p-h specific activity by rate of reduction of DCPIP; format: biochemical; conditions: for E1p-h specific activity, percent of that with ThDP: cofactor 0.2 or 0.5 mM
OGDHc-h = target: T2, OGDHc-h (Homo sapiens, UniProt Q02218); assay: Overall OGDHc-h activity by formation of NADH; format: biochemical
T2 sequence (Q02218 41-1023): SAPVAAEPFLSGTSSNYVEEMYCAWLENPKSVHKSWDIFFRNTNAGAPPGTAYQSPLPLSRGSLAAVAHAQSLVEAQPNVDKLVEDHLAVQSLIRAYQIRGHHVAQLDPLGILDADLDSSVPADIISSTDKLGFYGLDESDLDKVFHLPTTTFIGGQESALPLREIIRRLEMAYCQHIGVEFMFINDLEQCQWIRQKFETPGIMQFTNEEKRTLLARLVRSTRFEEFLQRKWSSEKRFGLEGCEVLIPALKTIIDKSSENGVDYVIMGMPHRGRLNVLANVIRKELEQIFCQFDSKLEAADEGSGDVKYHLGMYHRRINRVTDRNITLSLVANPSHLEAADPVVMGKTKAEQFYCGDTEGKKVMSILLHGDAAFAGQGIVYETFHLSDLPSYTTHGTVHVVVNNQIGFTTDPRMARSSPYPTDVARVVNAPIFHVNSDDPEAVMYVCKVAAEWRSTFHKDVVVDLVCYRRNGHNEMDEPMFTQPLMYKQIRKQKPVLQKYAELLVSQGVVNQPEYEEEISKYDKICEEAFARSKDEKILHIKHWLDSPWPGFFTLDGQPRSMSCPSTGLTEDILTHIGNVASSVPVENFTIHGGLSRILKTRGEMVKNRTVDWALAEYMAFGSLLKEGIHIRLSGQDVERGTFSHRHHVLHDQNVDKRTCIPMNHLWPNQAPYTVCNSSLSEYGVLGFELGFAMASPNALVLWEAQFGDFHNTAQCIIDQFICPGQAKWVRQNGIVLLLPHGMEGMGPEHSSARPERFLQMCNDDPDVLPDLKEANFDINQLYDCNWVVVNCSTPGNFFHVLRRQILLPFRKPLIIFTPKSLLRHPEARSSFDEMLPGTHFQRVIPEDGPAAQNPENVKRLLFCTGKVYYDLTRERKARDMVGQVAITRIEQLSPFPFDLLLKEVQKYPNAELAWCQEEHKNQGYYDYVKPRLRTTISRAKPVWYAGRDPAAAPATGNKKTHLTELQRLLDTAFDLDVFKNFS
T2 sequence (P36957 68-453 partner): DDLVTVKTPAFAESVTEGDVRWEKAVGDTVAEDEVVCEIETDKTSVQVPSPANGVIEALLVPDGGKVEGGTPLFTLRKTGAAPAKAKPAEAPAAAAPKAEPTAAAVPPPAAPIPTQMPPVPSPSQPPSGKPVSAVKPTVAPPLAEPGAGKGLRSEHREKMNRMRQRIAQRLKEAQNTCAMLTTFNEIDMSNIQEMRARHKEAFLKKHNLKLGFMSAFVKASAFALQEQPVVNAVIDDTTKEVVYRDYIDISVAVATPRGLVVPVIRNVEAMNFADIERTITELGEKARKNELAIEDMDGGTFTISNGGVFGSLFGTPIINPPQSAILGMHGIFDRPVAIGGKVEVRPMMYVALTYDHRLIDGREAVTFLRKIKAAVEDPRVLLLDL
T2 sequence (P09622 36-509 partner): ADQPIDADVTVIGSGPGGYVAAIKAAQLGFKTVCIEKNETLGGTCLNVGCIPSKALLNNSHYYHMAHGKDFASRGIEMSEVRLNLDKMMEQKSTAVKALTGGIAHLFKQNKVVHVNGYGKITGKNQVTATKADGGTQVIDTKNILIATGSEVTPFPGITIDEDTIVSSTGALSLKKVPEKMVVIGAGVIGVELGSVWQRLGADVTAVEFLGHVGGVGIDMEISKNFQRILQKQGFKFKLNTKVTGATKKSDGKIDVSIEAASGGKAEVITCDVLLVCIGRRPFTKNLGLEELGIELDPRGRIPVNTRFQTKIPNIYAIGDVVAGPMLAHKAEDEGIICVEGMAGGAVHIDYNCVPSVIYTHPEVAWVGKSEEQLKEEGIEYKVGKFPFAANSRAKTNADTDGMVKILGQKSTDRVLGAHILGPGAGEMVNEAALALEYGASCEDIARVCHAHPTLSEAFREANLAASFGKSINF

E1p-ec [3] = target: T3, E1p-ec (Escherichia coli, UniProt P0AFG8); conditions: cofactor 0.2 mM
PDHc-ec = PDHc-ec (Escherichia coli, UniProt P0AFG8); conditions: cofactor 0.2 mM in assay, no ThDP present for MeOThDP
DXPS [4] = target: T4, DXPS (Escherichia coli, UniProt P77488)
DXPS [5] = target: T4, DXPS; conditions: apo-DXPS with 0.10 mM cofactor
E1p-ec [6] = target: T3, E1p-ec

**Q.** What does the source list for `COc1ncc(C[n+]2csc(CCOP(=O)(O)OP(=O)(O)O)c2C)c(N)n1` [MeOThDP, 2′-methoxythiamin diphosphate]?
**A.** rate of reductive acetylation of LD1-h (E1p-h [1]): 6.38 s⁻¹; overall OGDHc activity, percent of that with ThDP (OGDHc-ec; listed as MeOThP): 42% and 69%; E1p-h specific activity (E1p-h [2]; cofactor 0.2 and 0.5 mM, E1p-h alone, model reaction): 0.017 ± 0.01 µmol min^−1 (mg of E1p-h)^−1; E1p-h specific activity, percent of that with ThDP (E1p-h [2]): ~49%; overall OGDHc activity, percent of that with ThDP (OGDHc-h): 64%; E1p-ec specific activity, percent of that with ThDP (E1p-ec [3]): ~19%; overall PDHc-ec activity, percent of that with ThDP (PDHc-ec): 8.6% and 11% and 5.9%; percent of quenching of the fluorescence of apo-DXPS (DXPS [4]): 27%; Kd (DXPS [4]; read-out: Kd from quenching of the intrinsic fluorescence of DXPS, apo-DXPS, pH 8.0, 25 °C): 6.24 ± 0.23 µM; DXPS activity, percent of that with ThDP (DXPS [5]): 9–14% and 8.8% and 14% and ~ 8.8% and ~ 14%; DXPS activity (DXPS [5]; 37 °C, independent preparations): 0.26 ± 0.04 µmol min^−1 (mg of DXPS)^−1 and 0.30 ± 0.01 µmol min^−1 (mg of DXPS)^−1; percent of the E1p-ec fluorescence quenched (E1p-ec [6]): 5.8%

**Q.** For `Cc1ncc(C[n+]2csc(CCOP(=O)([O-])OP(=O)(O)O)c2C)c(N)n1` [ThDP, thiamin diphosphate], which “rate of reductive acetylation of LD1-h” value (E1p-h [1]) is on record?
**A.** 10.25 s⁻¹

**Q.** And the “overall OGDHc activity, percent of that with ThDP” value (OGDHc-ec)?
**A.** 100%

**Q.** What about the “E1p-h specific activity, percent of that with ThDP” value (E1p-h [2]) of the same compound?
**A.** 100%

**Q.** What about the “overall OGDHc activity, percent of that with ThDP” value (OGDHc-h) of the same compound?
**A.** 100%

**Q.** And the “E1p-ec specific activity, percent of that with ThDP” value (E1p-ec [3])?
**A.** 100%

**Q.** And the E1p-ec specific activity (E1p-ec [3]; E1p-ec alone, model reaction)?
**A.** 0.36 ± 0.01 µmol min^−1 (mg of E1p-ec)^−1

**Q.** What about the “overall PDHc-ec activity, percent of that with ThDP” value (PDHc-ec) of the same compound?
**A.** 100%

**Q.** And the “percent of quenching of the fluorescence of apo-DXPS” value (DXPS [4])?
**A.** 35%

**Q.** And the “DXPS activity, percent of that with ThDP” value (DXPS [5])?
**A.** 100%

**Q.** What about the “percent of the E1p-ec fluorescence quenched” value (E1p-ec [6]) of the same compound?
**A.** 9.9%
